Laboratory results reported in patent US20120022142A1, “RNA Interference Mediated Inhibition of Signal Transducer and Activator of Transcription 1 (STAT1) Gene Expression Using Short Interfering Nucleic Acid (siNA)” (Merck Sharp & Dohme Corp., priority 2009, published 2012).
Like-named read-outs stand apart in the source and are kept apart here. [invAb] = inverted abasic unit; m = 2'-O-methyl; r = 2'-OH (RNA); f = 2'-fluoro

How the values were obtained:
STAT1 human mRNA = test: Initial screen of siNAs: STAT1 mRNA knock-down in A549 cells (96-well transfection, Taqman RT-PCR); assay type: cell-based; conditions: 10 nM siNA, 24 hrs, normalized against GAPDH, average of 2 experiments
Experimental: A549 (human; ATCC cat# CCL-185): Cells were cultured at 37° C. in the presence of 5% CO2 and grown in Ham's F12K medium with 2 mM L-glutamine adjusted to contain 1.5 g/L sodium bicarbonate and supplemented with fetal bovine serum at a final concentration of 10% and 100 μg/mL of streptomycin and 100 U/mL penicillin.
Cells were plated in all wells of a tissue-culture treated, 96-well plate at a final count of 5000 cells/well in 100 μL of the appropriate culture media. The cells were cultured for 24 hours after plating at 37° C. in the presence of 5% CO2.
After 24 hours, complexes containing siNA and RNAiMax were created as follows: A solution of RNAiMax diluted 33-fold in OPTI-MEM was prepared. In parallel, solutions of the siNAs for testing were prepared to a final concentration of 120 nM in OPTI-MEM. After incubation of RNAiMax/OPTI-MEM solution at room temperature for 5 min, an equal volume of the siNA solution and the RNAiMax solution were added together for each of the siNAs.
This solution was incubated at room temperature for 20 minutes. After incubation, 20 uL of the solution was added to each of the relevant wells. The final concentration of siNA in each well was 10 nM and the final volume of RNAiMax in each well was 0.3 ul.
The time of incubation with the RNAiMax-siNA complexes was 24 hours and there was no change in media between transfection and harvesting, unless otherwise indicated.
RNA was extracted from a 96-well plate using the TaqMan® Gene Expression Cells-to-CT™ Kit (Cat# 4399002) with a modified protocol. Briefly, a 60 uL (1 plate) or 110 uL (2 plates) of the Lysis Solution with DNase I was dispensed into each well of the Lysis Buffer Plate (twin.tec full skirt plate). The lysis buffer and stop plates were stored at 4° C. until the cells were washed.
The culture medium was aspirated and discarded from the wells of the culture plate. 50 uL of chilled DPBS was added to each well, then aspirated and discarded. The lysis was performed automatically using a BioMek FX instrument and method. After the Biomek method was completed, the lysis plate was incubated for 2 min at room temperature. The lysis plate can be stored for 2 hours at 4° C., or at −20° C. or −80° C. for two months.
Each well of the reverse transcription plate required 10 uL of 2× reverse transcriptase Buffer, 1 uL of 20× reverse transcription enzyme and 2 uL of nuclease-free water. The reverse transcription master mix was prepared by mixing 2× reverse transcription buffer, 20× reverse transcription enzyme mix, and nuclease-free water. 13 uL of the reverse transcription master mix was dispensed into each well of the reverse transcription plate (semi-skirted). A separate reverse transcription plate was prepared for each cell plate. The plate was loaded onto a Biomek NX or Biomek FX Dual-96 and the Biomek method was run. The program is programmed to automatically added 7 uL of lysate from the cell lysis procedure described above into each well of the reverse transcription plate. The plate is sealed and spun on a centrifuge (1000 rpm for 30 seconds) to settle the contents to the bottom of the reverse transcription plate. The plate is placed in a thermocycler at 37° C. for 60 min, 95° C. for 5 min, and 4° C. until the plate is removed from the thermocycler. Upon removal, if not used immediately, the plate was frozen at −20° C.
(§1) A series of probes and primers were used to detect the various mRNA transcripts of the genes of β-Actin (human cell line only), and of STAT1 and GAPDH in mouse and human cell lines. All Taqman probes and primers for the experiments here-in described were supplied as pre-validated sets by Applied Biosystems, Inc. (see Table 2).
(§2) The assays were performed on an ABI 7900 instrument, according to the manufacturer's instructions.
Within each experiment, the baseline was set in the exponential phase of the amplification curve, and based on the intersection point of the baselines with the amplification curve, a Ct value was assigned by the instrument. […]

STAT1 mRNA [1] = test: Efficacy (% KD) and potency (IC50) of STAT1 mRNA knockdown of siNA leads in A549 cells; assay type: cell-based, human; conditions: for Human (A549) avg % KD: STAT1 mRNA, 30 nM siNA, at least three experiments
Experimental: (§3) A549 cells were plated in 6-well plates at final counts of 70,000 cells/well in 2 ml of complete growth media (Ham's F12, Cellgro Cat# 10-080-CV+10% FBS). Transfection was performed using 2.5 uL of RNAiMax (Invitrogen Cat# 13778-150) per well. Final concentration of siNAs was 30, 3, 0.3, 0.03, 0.003, and 0.0003 nM done in duplicate. The siNAs were incubated for 24-72 hours. The duplicate samples were pooled to prepare protein lysates and RNA using the “PARIS” Protein and RNA Isolation System from Ambion, Cat# 1921. The total protein in the lysates was measured using a Bradford Dye Reagent (Bio-Rad, Cat# 500-0205).SDS-PAGE/Western Blotting was performed on the on the protein samples and RT-PCR on the RNA samples.
as §1, §2
The expression level of the gene of interest and % knock-down was calculated using Comparative Ct method: […]
All calculations of IC50s were performed using SigmaPlot 10.0 software. The data were analyzed using the sigmoidal dose-response (variable slope) equation for simple ligand binding. In all of the calculations of the % knock-down, the calculation was made relative to the normalized level of expression of the gene of interest in the samples treated with the non-targeting control (Ctrl siNA) unless otherwise indicated.
Certain siNAs were further analyzed for efficacy in human A549 cells and mouse NIH3T3 cells. Percent KD/reduction is represented as mean±S.D. IC50 is represented as mean±S.D. The date is summarized from at least three separate experiments and within each experiment, the data point is calculated from an n=2. The final concentration of siNA used was 30 nM.

STAT1 mRNA [2] = test: STAT1 mRNA level at 24, 48 and 72 hours post-transfection in A549 cells; assay type: cell-based, human; conditions: STAT1 mRNA remaining vs control, A549, 30 nM; for mRNA 24 hr: 24 hr post-transfection; for mRNA 48 hr: 48 hr post-transfection; for mRNA 72 hr: 72 hr post-transfection
Experimental: as §3, §1
An assessment of the level of mRNA at each timepoint was also made and protein samples from the treated cells were used in Western blots with an α-STAT1 antibody. (Clontech, Cat# 610185) and anti-Tubulin Ab (Sigma # T6199) in human A549 cells. Cells were transfected 24, 48 or 72 hours before harvesting total protein and the final concentration of siNAs was 30 nM. Lanes were loaded with 10 ug of total protein. Quantification was done of both the STAT1α and the STAT1β proteins together. All the siNAs tested reduced STAT1 protein at each of the tested timepoints, with the highest degree of protein reduction being observed at 72 hours post-transfection.

[3] = A549 cells, Table 5, read-out: IC50 vs. STAT1 mRNA
[4] = STAT1 mRNA knockdown, mean ± S.D., read-out: Human (A549) IC50

Substance	% KD Human (STAT1 human mRNA) [%]	IC50 (STAT1 mRNA [1]; [3]) [nM]	IC50 (STAT1 mRNA [1]; [4]) [nM]	Human (A549) avg % KD (STAT1 mRNA [1]; mean ± S.D.) [%]	mRNA 24 hr (STAT1 mRNA [2]) [%]	mRNA 48 hr (STAT1 mRNA [2]) [%]	mRNA 72 hr (STAT1 mRNA [2]) [%]
25351-DC: STAT1 siNA duplex, human target site 2249; modified strands SEQ ID NO: 39 and 40 (chain 1 CCUACACGAAGAAAGAACUTT; chain 2 AGUUCUUUCUUCGUGUAGGUU; chain 1: DNA at AGT, 2'-fluoro at CU, [invAb] at 5' end, 3' end, backbone not given here; chain 2: sugars from the 5' end rrrfffffffffmfmfmmmmm, backbone not given here)	90	0.025 ± 0.009	0.012 ± 0.002	91.7 ± 0.1	3	2	2
25368-DC: STAT1 siNA duplex, human target site 782; modified strands SEQ ID NO: 73 and 74 (chain 1 GUAAAGUCAGAAAUGUGAATT; chain 2 UUCACAUUUCUGACUUUACUU; chain 1: DNA at AGT, 2'-fluoro at CU, [invAb] at 5' end, 3' end, backbone not given here; chain 2: sugars from the 5' end rrrmfmfffffmmffffmfmm, backbone not given here)	91	0.097 ± 0.018	0.01 ± 0.0064	89.1 ± 1.8	3	3	3
25369-DC: STAT1 siNA duplex, human target site 602; modified strands SEQ ID NO: 75 and 76 (chain 1 GGAAAAGCAAGCGUAAUCUTT; chain 2 AGAUUACGCUUGCUUUUCCUU; chain 1: DNA at AGT, 2'-fluoro at CU, [invAb] at 5' end, 3' end, backbone not given here; chain 2: sugars from the 5' end rrrffmfmfffmfffffffmm, backbone not given here)	92	0.012 ± 0.002	0.097 ± 0.018	88.8 ± 3.1	8	7	14
25367-DC: STAT1 siNA duplex, human target site 966; modified strands SEQ ID NO: 71 and 72 (chain 1 GCUUGACAAUAAGAGAAAGTT; chain 2 CUUUCUCUUAUUGUCAAGCUU; chain 1: DNA at AGT, 2'-fluoro at CU, [invAb] at 5' end, 3' end, backbone not given here; chain 2: sugars from the 5' end rrrffffffmffmffmmmfmm, backbone not given here)	91	0.01 ± 0.0064	0.032 ± 0.014	88.6 ± 1.1	3	2	2
25372-DC: STAT1 siNA duplex, human target site 968; modified strands SEQ ID NO: 81 and 82 (chain 1 UUGACAAUAAGAGAAAGGATT; chain 2 UCCUUUCUCUUAUUGUCAAUU; chain 1: DNA at AGT, 2'-fluoro at CU, [invAb] at 5' end, 3' end, backbone not given here; chain 2: sugars from the 5' end rrrffffffffmffmffmmmm, backbone not given here)	92	0.032 ± 0.014	0.025 ± 0.009	86.0 ± 2.0	4	3	3
